{"source": "paper PMC6028122", "about": "“Thermostabilization and purification of the human dopamine transporter (hDAT) in an inhibitor and allosteric ligand bound conformation” (PLoS ONE, 2018)", "molecular_target": "T1, human dopamine transporter (hDAT) (Homo sapiens, UniProt Q01959, I248Y)", "T1 construct": "gene SLC6A3; hDAT-I248Y expressed in HEK293S cells", "T1 sequence (Q01959 whole entry I248Y)": "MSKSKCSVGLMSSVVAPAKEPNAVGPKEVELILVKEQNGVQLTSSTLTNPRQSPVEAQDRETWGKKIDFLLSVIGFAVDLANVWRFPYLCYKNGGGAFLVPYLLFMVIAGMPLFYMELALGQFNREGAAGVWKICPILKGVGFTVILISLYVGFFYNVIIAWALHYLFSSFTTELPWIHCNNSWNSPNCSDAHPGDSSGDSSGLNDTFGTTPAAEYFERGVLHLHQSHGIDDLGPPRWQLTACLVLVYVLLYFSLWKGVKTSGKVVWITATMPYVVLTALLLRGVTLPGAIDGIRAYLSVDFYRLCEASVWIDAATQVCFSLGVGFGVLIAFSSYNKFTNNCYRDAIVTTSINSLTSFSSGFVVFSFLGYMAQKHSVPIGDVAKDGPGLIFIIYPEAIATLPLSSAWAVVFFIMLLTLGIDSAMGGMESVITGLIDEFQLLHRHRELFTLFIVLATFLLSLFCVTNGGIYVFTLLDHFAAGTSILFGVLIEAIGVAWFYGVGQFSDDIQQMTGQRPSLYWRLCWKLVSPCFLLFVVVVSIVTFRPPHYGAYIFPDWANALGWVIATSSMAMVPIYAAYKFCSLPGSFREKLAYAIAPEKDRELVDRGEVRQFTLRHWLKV", "format": "cell-based", "data": [{"smiles": "NCCc1ccc(O)c(O)c1", "note": "[dopamine]", "values": [{"measurement": "[3H]dopamine uptake in cells", "value": "the I248Y mutant was also able to transport dopamine (S2 Fig)"}]}]}
